Results as given in ChEMBL document CHEMBL5214920, “Emerging impact of triazoles as anti-tubercular agent” (Eur J Med Chem, 2022).
≈ marks a conversion by molar mass, not a printed value.

What was measured:
[1] = system: Mycobacterium tuberculosis; assay: Antitubercular activity against Mycobacterium tuberculosis H37Rv assessed as bacterial growth inhibition measured after […] by twofold agar dilution method; assay type: functional
[2] = Cytotoxicity against CHO cells assessed as cell growth inhibition by MTT assay; assay type: toxicity, cell-based, Cricetulus griseus; settings: chinese hamster
[3] = system: Mycobacterium tuberculosis; assay: Antitubercular activity against Mycobacterium tuberculosis H37Rv assessed as bacterial growth inhibition by direct susceptibility assay; assay type: functional
[4] = system: Mycobacterium tuberculosis; assay: Potency index, ratio of ethambutol MIC to test compound MIC for antitubercular activity against Mycobacterium tuberculosis H37Rv assessed as bacterial growth inhibition; assay type: functional
[5] = system: Mycobacterium tuberculosis; assay: Antitubercular activity against Mycobacterium tuberculosis H37Rv assessed as bacterial growth inhibition measured after 7 days by MABA method; assay type: functional; settings: 168 h, time 7 day
[6] = system: Mycobacterium tuberculosis; assay: Antitubercular activity against Mycobacterium tuberculosis H37Rv ATCC 27294 assessed as bacterial growth inhibition measured after 9 days by twofold agar dilution method; assay type: functional; settings: H37Rv ATCC 27294, 216 h, time 9 day
[7] = system: Mycobacterium tuberculosis; assay: Antitubercular activity against Mycobacterium tuberculosis mc 2 7000 assessed as bacterial growth inhibition; assay type: functional
[8] = system: Mycobacterium tuberculosis; assay: Antitubercular activity against active stage of Mycobacterium tuberculosis H37Ra ATCC 25177 assessed as bacterial growth inhibition by XTT assay; assay type: functional
[9] = system: Mycobacterium tuberculosis; assay: Antitubercular activity against dormant stage of Mycobacterium tuberculosis H37Ra ATCC 25177 assessed as bacterial growth inhibition by XTT assay; assay type: functional
[10] = system: Mycobacterium tuberculosis; assay: Antitubercular activity against Mycobacterium tuberculosis H37Rv assessed as reduction in relative light units at 2 ug/ml incubated for 4 hrs followed by addition of D-luciferin by luciferase based luminometer analysis relative to control; assay type: functional; set-up: scale not given: the % may be the effect or the level left; settings: dose 2 µg/ml
[11] = system: Mycobacterium tuberculosis; assay: Antitubercular activity against Mycobacterium tuberculosis H37Rv assessed as bacterial growth inhibition measured after 7 days by direct susceptibility assay; assay type: functional; settings: 168 h, time 7 day

## O=C1CC2CN(c3ccc(N4C[C@H](Cn5ccnn5)OC4=O)cc3F)CC2C1 (some centres not stated)
[1]
  MIC: 0.5 µg/mL (≈ 1.3 µM)

## COc1c(N2CCN(C(=O)Cn3cc(CN4C(=O)C(=O)c5cc(C)ccc54)nn3)C(C)C2)c(F)cc2c(=O)c(C(=O)O)cn(C3CC3)c12 (configuration not stated)
[2]
  CC50: 64 µg/mL (≈ 97.3 µM)
[3]
  MIC: 1 µg/mL (≈ 1.52 µM)

## O=C(N/N=C1\C(=O)N(Cc2ccc(Cl)cc2)c2ccccc21)c1ccc(-n2cc(-c3ccccc3)nn2)cc1O
[4]
  Ratio: 8
[5]
  MIC: 0.39 µg/mL (≈ 0.71 µM)

## O=C(OCc1cn(CCCc2ccccc2)nn1)c1ccc(F)cc1
[6]
  MIC: 3.75 µg/mL (≈ 11 µM)

## CO[C@H]1/C=C/O[C@@]2(C)Oc3c(C)c(O)c4c(O)c(c(/C=N/N5CCN(C)CC5)c(O)c4c3C2=O)NC(=O)/C(C)=C\C=C\[C@H](C)[C@H](O)[C@@H](C)[C@@H](O)[C@@H](C)[C@H](OC(C)=O)[C@@H]1C [RIFAMPIN]
[7]
  MIC: 0.12 µM (≈ 0.0988 µg/mL)
[8]
  MIC: 0.074 µg/mL (≈ 0.0899 µM)
[5]
  MIC: 0.2 µg/mL (≈ 0.243 µM)
[9]
  MIC: 0.075 µg/mL (≈ 0.0911 µM)
[10]
  Activity: 87%
[11]
  MIC: 0.043 µg/mL (≈ 0.0523 µM)
